According to patent US9902725B2, “Heterocyclic derivatives as RORgamma modulators” (GENFIT, priority 2014, dated 2018):

What was measured:
[1] = Microsomal stability, human microsomes (CEREP); assay type: in vitro ADME; details: 0.1 μM, 0.1 mg/mL microsomal protein
Description: (§1) All the assays were conducted at CEREP (CEREP, France and USA). Metabolic compound stability was tested in human (CEREP, Ref 607) and mouse (CEREP, Ref: 806) microsomes. Inhibition of human drug-metabolizing cytochromes P450 was tested on the five most commonly responsible enzymes of metabolism of xenobiotics, CYP1A2 (CEREP, Ref 389), CYP2C9 (CEREP, Ref 412), CYP2C19 (CEREP, Ref 390), CYP2D6 (CEREP, Ref 1338) and CYP3A4 (CEREP, Ref 391).
(§2) Briefly, the standard conditions for CEREP's stability assays include incubation of test compound at 0.1 μM with human or mouse microsomes for 60 minutes in duplicate. The protein concentration of microsomes is 0.1 mg/mL. The parent compound is detected by HPLC-MS/MS analysis. The quantity of the parent compound that remains intact upon 60 minutes of microsome exposure (% remaining) is calculated by comparing the peak area of the parent compound at 60 minutes of exposure to the time zero.

[2] = Microsomal stability, mouse microsomes (CEREP); assay type: in vitro ADME; details: 0.1 μM, 0.1 mg/mL microsomal protein
Description: as §1, §2

[3] = biological target: T1, RORγt ligand-binding domain (RORγt-LBD) (Homo sapiens, UniProt P51449); assay: Time-resolved FRET (TR-FRET) RORγt coactivator assay; assay type: biochemical; details: GST-RORγ-LBD, biotinylated RIP140 peptide, coactivator displacement
T1 construct: 20 nM recombinantly expressed RORγ-LBD fused to GST
T1 sequence (P51449 269-508 limits assumed): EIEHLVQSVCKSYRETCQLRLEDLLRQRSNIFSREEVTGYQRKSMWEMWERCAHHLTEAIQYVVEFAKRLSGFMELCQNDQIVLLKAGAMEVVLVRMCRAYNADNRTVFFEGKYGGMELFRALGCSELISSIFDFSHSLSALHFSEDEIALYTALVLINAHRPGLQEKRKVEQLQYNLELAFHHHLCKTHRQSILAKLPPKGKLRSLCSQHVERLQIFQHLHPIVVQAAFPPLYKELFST

| Compound | Human microsomes (% Cpd. remaining at 60 min) [1] [%] | Mouse microsomes (% Cpd. remaining at 60 min) [2] [%] | IC50 [3] [nM] |
| --- | --- | --- | --- |
| O=C(O)CCc1c[nH]c2ccc(CC(=O)NC(c3ccccc3)c3ccccc3N3CCCCC3)cc12 (stereo not drawn) [Cpd. 1, 3-{5-[({phenyl[2-(piperidin-1-yl)phenyl]methyl}carbamoyl)methyl]-1H-indol-3-yl}propanoic acid] | 54 | 35 | < 1000 |
| O=C(O)CCc1c[nH]c2ccc(CC(=O)NC(c3ccccc3)c3ccc(C(F)(F)F)cc3N3CCCC3)cc12 (stereo not drawn) [Cpd. 48, 3-{5-[({phenyl[2-(pyrrolidin-1-yl)-4-(trifluoromethyl)phenyl]methyl}carbamoyl)methyl]-1H-indol-3-yl}propanoic acid] | 83 | 53 | < 1000 |
| O=C(O)CCc1c[nH]c2ccc(CC(=O)NC(c3cccc(F)c3)c3ccccc3N3CCCCC3)cc12 (stereo not drawn) [Cpd. 3, 3-[5-({[(3-fluorophenyl)[2-(piperidin-1-yl)phenyl]methyl]carbamoyl}methyl)-1H-indol-3-yl]propanoic acid] | 36 | 22 | < 1000 |
| Cc1ccc(C(NC(=O)Cc2ccc3[nH]cc(CCC(=O)O)c3c2)c2ccccc2)c(N2CCCC2)c1 (stereo not drawn) [Cpd. 5, 3-{5-[({[4-methyl-2-(pyrrolidin-1-yl)phenyl](phenyl)methyl}carbamoyl)methyl]-1H-indol-3-yl}propanoic acid] | 89 | 50 | < 1000 |
| O=C(O)CCc1c[nH]c2ccc(CC(=O)NC(c3ccccc3)c3ccc(Br)cc3N3CCCC3)cc12 (stereo not drawn) [Cpd. 50, 3-{5-[({[4-bromo-2-(pyrrolidin-1-yl)phenyl](phenyl)methyl}carbamoyl)methyl]-1H-indol-3-yl}propanoic acid] | 92 | 38 | < 1000 |
| CC(C)CC(NC(=O)Cc1ccc2[nH]cc(CCC(=O)O)c2c1)c1ccccc1N1CCCCC1 (stereo not drawn) [Cpd. 29, 3-{5-[({3-methyl-1-[2-(piperidin-1-yl)phenyl]butyl}carbamoyl)methyl]-1H-indol-3-yl}propanoic acid] | 23 | 20 | < 1000 |
| Cc1ccc(C(NC(=O)Cc2ccc3[nH]cc(CCC(=O)O)c3c2)c2ccccc2)c(N(C)C)c1 (stereo not drawn) [Cpd. 192, 3-{5-[({[2-(dimethylamino)-4-methylphenyl](phenyl)methyl}carbamoyl)methyl]-1H-indol-3-yl}propanoic acid] | 79 | 66 | < 1000 |

Second part, the molecule after the results:

| Human microsomes (% Cpd. remaining at 60 min) [1] [%] | Mouse microsomes (% Cpd. remaining at 60 min) [2] [%] | IC50 [3] [nM] | Compound |
| --- | --- | --- | --- |
| 88 | 37 | < 1000 | COc1ccc(C(NC(=O)Cc2ccc3[nH]cc(CCC(=O)O)c3c2)c2ccccc2)c(N2CCCCC2)c1 (stereo not drawn) [Cpd. 111, 3-{5-[({[4-methoxy-2-(piperidin-1-yl)phenyl](phenyl)methyl}carbamoyl)methyl]-1H-indol-3-yl}propanoic acid] |
| 26 | 11 | < 1000 | O=C(O)CCCc1c[nH]c2ccc(CC(=O)NC(c3ccccc3)c3ccccc3N3CCCCC3)cc12 (stereo not drawn) [Cpd. 212, 4-{5-[({phenyl[2-(piperidin-1-yl)phenyl]methyl}carbamoyl)methyl]-1H-indol-3-yl}butanoic acid] |
| 88 | 31 | < 1000 | Cc1ccc(C(NC(=O)Cc2ccc3[nH]cc(CCC(=O)O)c3c2)c2ccccc2)c(N2CCCCC2)c1 (stereo not drawn) [Cpd. 77, 3-{5-[({[4-methyl-2-(piperidin-1-yl)phenyl](phenyl)methyl}carbamoyl)methyl]-1H-indol-3-yl}propanoic acid] |
